Experiments:
Test in all cases: radiometric filter-binding kinase assay
STK33 (human) = STK33 (human) (UniProt Q9BYT3)
PRKCG (human) = PRKCG (human) (UniProt P05129)
ULK2 (human) = ULK2 (human) (UniProt Q8IYT8)
STK24 (human) = STK24 (human) (UniProt Q9Y6E0)
CSNK1G2 (human) = CSNK1G2 (human) (UniProt P78368)
IRAK1 (human) = IRAK1 (human) (UniProt P51617)
SIK3 (human) = SIK3 (human) (UniProt Q9Y2K2)
ULK1 (human) = ULK1 (human) (UniProt O75385)
EIF2AK3 (human) = EIF2AK3 (human) (UniProt Q9NZJ5)
NUAK1 (human) = NUAK1 (human) (UniProt O60285)
WNK1 (human) = WNK1 (human) (UniProt Q9H4A3)
Sequence of WNK1 (human) (Q9H4A3 whole entry, looked up): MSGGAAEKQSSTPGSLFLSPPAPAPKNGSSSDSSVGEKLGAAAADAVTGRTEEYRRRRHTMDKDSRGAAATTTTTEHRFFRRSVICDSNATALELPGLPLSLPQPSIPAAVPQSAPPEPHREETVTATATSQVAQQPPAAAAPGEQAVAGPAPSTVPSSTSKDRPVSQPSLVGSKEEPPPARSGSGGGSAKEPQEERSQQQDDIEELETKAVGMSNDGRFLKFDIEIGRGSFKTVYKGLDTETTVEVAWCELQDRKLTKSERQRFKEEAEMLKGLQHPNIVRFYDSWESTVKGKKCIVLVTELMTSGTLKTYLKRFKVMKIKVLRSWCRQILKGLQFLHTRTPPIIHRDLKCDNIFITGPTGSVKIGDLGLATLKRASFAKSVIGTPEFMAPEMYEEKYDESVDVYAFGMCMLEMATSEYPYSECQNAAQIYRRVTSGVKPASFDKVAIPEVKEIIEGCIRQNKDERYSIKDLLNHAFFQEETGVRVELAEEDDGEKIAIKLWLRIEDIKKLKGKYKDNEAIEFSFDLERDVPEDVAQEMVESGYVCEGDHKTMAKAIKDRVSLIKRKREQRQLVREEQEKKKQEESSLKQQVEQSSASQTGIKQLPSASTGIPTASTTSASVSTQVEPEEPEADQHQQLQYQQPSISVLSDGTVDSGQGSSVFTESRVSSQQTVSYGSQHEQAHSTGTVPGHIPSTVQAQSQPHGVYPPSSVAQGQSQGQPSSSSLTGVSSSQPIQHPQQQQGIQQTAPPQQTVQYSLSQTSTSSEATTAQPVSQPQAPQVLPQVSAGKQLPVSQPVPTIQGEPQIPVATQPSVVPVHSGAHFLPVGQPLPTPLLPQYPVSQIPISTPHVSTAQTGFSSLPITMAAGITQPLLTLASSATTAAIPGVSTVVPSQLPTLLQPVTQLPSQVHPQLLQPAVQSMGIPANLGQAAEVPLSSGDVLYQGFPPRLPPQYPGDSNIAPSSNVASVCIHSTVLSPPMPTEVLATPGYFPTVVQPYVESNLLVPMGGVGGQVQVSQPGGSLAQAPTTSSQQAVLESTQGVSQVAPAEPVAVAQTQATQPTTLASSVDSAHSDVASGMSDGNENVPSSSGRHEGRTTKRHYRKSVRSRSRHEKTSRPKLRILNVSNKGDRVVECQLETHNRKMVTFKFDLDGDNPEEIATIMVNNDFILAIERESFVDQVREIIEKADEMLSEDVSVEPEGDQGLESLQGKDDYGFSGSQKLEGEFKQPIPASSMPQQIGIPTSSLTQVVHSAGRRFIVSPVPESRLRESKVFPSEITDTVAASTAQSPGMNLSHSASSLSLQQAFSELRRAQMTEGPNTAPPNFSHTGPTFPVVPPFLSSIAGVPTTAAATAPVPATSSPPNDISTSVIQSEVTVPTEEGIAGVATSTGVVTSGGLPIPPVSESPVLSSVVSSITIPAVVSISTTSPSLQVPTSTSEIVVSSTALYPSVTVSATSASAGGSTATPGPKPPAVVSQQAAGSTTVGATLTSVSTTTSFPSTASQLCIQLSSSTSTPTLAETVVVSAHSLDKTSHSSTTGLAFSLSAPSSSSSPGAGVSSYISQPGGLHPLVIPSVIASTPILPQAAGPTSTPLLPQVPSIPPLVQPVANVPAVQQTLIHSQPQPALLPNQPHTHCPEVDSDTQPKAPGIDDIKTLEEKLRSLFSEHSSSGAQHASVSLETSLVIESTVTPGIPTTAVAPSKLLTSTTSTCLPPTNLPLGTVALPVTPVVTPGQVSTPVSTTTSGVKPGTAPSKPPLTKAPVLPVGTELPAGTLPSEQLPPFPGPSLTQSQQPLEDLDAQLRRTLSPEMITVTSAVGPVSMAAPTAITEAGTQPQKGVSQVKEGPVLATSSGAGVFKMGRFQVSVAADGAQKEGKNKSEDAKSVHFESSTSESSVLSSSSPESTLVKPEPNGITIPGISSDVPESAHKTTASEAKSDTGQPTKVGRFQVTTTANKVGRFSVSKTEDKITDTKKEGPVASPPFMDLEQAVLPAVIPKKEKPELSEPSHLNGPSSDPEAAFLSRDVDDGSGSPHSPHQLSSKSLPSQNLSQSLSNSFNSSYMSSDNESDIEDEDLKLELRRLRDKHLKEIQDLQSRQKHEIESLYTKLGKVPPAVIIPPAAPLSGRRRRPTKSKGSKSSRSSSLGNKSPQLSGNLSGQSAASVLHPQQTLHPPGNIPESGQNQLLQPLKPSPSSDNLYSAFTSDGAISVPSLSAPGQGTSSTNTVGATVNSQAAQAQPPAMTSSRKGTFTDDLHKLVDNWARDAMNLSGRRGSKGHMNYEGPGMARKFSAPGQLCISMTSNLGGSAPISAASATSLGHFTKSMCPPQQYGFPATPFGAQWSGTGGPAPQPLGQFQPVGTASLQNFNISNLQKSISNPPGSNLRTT

DDR2 (human) = DDR2 (human) (UniProt Q16832)
TTBK1 (human) = TTBK1 (human) (UniProt Q5TCY1)
TESK1 (human) = TESK1 (human) (UniProt Q15569)
Sequence of TESK1 (human) (Q15569 whole entry, looked up): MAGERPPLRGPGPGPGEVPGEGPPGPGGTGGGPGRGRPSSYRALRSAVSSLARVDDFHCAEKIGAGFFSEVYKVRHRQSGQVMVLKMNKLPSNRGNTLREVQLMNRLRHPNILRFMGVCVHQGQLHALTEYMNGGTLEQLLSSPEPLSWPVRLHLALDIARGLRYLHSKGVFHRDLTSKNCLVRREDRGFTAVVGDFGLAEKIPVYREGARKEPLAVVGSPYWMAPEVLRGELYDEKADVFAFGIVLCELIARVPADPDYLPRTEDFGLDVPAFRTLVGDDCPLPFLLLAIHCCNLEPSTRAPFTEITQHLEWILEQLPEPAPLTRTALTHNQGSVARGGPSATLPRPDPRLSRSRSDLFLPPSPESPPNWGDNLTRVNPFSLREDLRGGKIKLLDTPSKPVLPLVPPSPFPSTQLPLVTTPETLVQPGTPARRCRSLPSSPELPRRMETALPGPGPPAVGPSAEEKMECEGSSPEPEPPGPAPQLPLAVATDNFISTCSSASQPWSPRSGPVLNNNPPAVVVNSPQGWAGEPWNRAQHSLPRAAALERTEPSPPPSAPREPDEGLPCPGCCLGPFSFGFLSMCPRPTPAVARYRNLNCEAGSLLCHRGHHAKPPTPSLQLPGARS

SIK2 (human) = SIK2 (human) (UniProt Q9H0K1)
CDK9 CCNT1 (human) = CDK9 CCNT1 (human) (UniProt P50750+O60563)
TEK (human) = TEK (human) (UniProt Q02763)
ZAP70 (human) = ZAP70 (human) (UniProt P43403)
Sequence of ZAP70 (human) (P43403 whole entry, looked up): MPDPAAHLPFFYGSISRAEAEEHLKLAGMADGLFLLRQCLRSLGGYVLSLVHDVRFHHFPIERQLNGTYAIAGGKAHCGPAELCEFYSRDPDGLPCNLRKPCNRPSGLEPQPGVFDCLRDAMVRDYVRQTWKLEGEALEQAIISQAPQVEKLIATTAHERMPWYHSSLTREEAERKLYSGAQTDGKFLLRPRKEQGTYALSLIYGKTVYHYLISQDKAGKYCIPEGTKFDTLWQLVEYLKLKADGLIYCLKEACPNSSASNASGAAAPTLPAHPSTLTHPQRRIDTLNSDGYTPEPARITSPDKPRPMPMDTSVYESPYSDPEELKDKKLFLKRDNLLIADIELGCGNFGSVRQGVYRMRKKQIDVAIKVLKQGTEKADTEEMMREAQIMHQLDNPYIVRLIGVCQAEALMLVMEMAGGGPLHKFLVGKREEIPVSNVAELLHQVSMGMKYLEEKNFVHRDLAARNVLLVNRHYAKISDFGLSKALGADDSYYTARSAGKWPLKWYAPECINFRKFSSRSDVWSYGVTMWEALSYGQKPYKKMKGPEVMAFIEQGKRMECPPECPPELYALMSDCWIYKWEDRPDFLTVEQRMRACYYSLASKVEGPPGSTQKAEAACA

[1] = test system: OXSR1 (human), O95747 [T185E]
ABL1 (human) = ABL1 (human) (UniProt P00519)
TSSK1B (human) = TSSK1B (human) (UniProt Q9BXA7)
PTK6 (human) = PTK6 (human) (UniProt Q13882)
TLK1 (human) = TLK1 (human) (UniProt Q9UKI8)
STK16 (human) = STK16 (human) (UniProt O75716)
Sequence of STK16 (human) (O75716 whole entry, looked up): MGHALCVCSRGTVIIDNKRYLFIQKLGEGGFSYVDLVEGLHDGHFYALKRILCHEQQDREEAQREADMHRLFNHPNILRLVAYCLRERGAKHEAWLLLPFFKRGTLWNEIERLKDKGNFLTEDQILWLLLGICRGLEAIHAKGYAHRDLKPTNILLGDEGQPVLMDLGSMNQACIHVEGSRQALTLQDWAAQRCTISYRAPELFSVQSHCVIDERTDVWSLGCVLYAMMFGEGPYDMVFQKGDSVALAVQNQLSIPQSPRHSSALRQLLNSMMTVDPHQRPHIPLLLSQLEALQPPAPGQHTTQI

MAP2K6 (human) = MAP2K6 (human) (UniProt P52564)

Sequence of EIF2AK3 (human) (Q9NZJ5 whole entry, looked up): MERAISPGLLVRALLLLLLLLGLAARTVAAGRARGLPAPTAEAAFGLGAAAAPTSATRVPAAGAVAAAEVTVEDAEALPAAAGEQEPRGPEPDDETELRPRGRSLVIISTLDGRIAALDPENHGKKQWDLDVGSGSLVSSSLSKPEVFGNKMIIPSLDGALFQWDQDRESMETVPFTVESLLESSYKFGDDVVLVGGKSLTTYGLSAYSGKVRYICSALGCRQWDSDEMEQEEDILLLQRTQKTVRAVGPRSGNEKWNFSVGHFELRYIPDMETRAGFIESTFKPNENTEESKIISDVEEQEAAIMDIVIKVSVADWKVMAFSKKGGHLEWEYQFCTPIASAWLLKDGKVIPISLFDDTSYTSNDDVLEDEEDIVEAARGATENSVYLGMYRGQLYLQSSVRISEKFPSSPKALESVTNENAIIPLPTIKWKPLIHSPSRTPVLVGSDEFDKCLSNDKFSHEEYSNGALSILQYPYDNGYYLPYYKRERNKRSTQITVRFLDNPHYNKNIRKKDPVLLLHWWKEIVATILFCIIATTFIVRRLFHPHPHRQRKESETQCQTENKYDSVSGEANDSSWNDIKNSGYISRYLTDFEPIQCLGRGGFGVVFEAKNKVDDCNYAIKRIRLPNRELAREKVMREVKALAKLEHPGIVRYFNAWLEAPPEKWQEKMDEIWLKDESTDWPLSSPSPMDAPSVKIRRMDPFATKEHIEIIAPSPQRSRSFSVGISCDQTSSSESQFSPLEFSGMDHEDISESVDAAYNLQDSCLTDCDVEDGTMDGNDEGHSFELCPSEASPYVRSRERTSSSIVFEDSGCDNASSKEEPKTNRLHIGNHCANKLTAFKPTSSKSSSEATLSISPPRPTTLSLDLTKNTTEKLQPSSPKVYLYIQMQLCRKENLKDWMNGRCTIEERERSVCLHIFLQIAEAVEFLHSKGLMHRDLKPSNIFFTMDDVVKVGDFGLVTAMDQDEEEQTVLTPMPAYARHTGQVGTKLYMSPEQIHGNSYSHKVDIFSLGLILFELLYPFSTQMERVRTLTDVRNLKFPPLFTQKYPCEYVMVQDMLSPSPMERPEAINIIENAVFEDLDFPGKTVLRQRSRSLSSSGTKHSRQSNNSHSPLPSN

`CN(C)C/C=C/C(=O)Nc1cccc(C(=O)Nc2ccc(Nc3nccc(-c4cccnc4)n3)cc2)c1` gave a residual activity (STK33 (human); compound 0.1 µM) of 92%, a residual activity (STK33 (human); compound 1.0 µM) of 91% and a residual activity (PRKCG (human); compound 0.1 µM) of 96%. For the same compound, the residual activity (PRKCG (human); compound 1.0 µM) was 101%, the residual activity (ULK2 (human); compound 0.1 µM) was 50% and the residual activity (ULK2 (human); compound 1.0 µM) was 69%. For the same compound, the residual activity (STK24 (human); compound 0.1 µM) was 94%, the residual activity (STK24 (human); compound 1.0 µM) was 93% and the residual activity (CSNK1G2 (human); compound 0.1 µM) was 88%. For the same compound, the residual activity (CSNK1G2 (human); compound 1.0 µM) was 88%, the residual activity (IRAK1 (human); compound 0.1 µM) was 26% and the residual activity (IRAK1 (human); compound 1.0 µM) was 5%. It also gave a residual activity (SIK3 (human); compound 0.1 µM) of 81%, a residual activity (SIK3 (human); compound 1.0 µM) of 64% and a residual activity (ULK1 (human); compound 0.1 µM) of 37%. It also gave a residual activity (ULK1 (human); compound 1.0 µM) of 63%, a residual activity (EIF2AK3 (human); compound 0.1 µM) of 90% and a residual activity (EIF2AK3 (human); compound 1.0 µM) of 99%. The residual activity (NUAK1 (human); compound 0.1 µM) was 35%, the residual activity (NUAK1 (human); compound 1.0 µM) was 82% and the residual activity (WNK1 (human); compound 0.1 µM) was 103%. For the same compound, the residual activity (WNK1 (human); compound 1.0 µM) was 117%, the residual activity (DDR2 (human); compound 0.1 µM) was 89% and the residual activity (DDR2 (human); compound 1.0 µM) was 108%. The residual activity (TTBK1 (human); compound 0.1 µM) was 88%, the residual activity (TTBK1 (human); compound 1.0 µM) was 79% and the residual activity (TESK1 (human); compound 0.1 µM) was 90%. It also gave a residual activity (TESK1 (human); compound 1.0 µM) of 98%, a residual activity (SIK2 (human); compound 0.1 µM) of 78% and a residual activity (SIK2 (human); compound 1.0 µM) of 67%. The residual activity (CDK9 CCNT1 (human); compound 0.1 µM) was 22%, the residual activity (CDK9 CCNT1 (human); compound 1.0 µM) was 42% and the residual activity (TEK (human); compound 0.1 µM) was 94%. The residual activity (TEK (human); compound 1.0 µM) was 84%, the residual activity (ZAP70 (human); compound 0.1 µM) was 82% and the residual activity (ZAP70 (human); compound 1.0 µM) was 123%. It also gave a residual activity ([1]; compound 0.1 µM) of 99%, a residual activity ([1]; compound 1.0 µM) of 105% and a residual activity (ABL1 (human); compound 0.1 µM) of 77%. It also gave a residual activity (ABL1 (human); compound 1.0 µM) of 85%, a residual activity (TSSK1B (human); compound 0.1 µM) of 88% and a residual activity (TSSK1B (human); compound 1.0 µM) of 101%. The residual activity (PTK6 (human); compound 0.1 µM) was 81%, the residual activity (PTK6 (human); compound 1.0 µM) was 81% and the residual activity (TLK1 (human); compound 0.1 µM) was 99%. The residual activity (TLK1 (human); compound 1.0 µM) was 98%, the residual activity (STK16 (human); compound 0.1 µM) was 108% and the residual activity (STK16 (human); compound 1.0 µM) was 103%. For the same compound, the residual activity (MAP2K6 (human); compound 0.1 µM) was 97% and the residual activity (MAP2K6 (human); compound 1.0 µM) was 91%.
`Cc1cc(NC(=O)c2cccc(NC(=O)/C=C/CN(C)C)c2)ccc1Nc1nccc(-c2cccnc2)n1` was tested, and the residual activity (STK33 (human); compound 0.1 µM) was 99%, the residual activity (STK33 (human); compound 1.0 µM) was 90% and the residual activity (PRKCG (human); compound 0.1 µM) was 92%. The residual activity (PRKCG (human); compound 1.0 µM) was 91%, the residual activity (ULK2 (human); compound 0.1 µM) was 28% and the residual activity (ULK2 (human); compound 1.0 µM) was 69%. It also gave a residual activity (STK24 (human); compound 0.1 µM) of 85%, a residual activity (STK24 (human); compound 1.0 µM) of 82% and a residual activity (CSNK1G2 (human); compound 0.1 µM) of 109%. For the same compound, the residual activity (CSNK1G2 (human); compound 1.0 µM) was 87%, the residual activity (IRAK1 (human); compound 0.1 µM) was 93% and the residual activity (IRAK1 (human); compound 1.0 µM) was 63%. For the same compound, the residual activity (SIK3 (human); compound 0.1 µM) was 88%, the residual activity (SIK3 (human); compound 1.0 µM) was 79% and the residual activity (ULK1 (human); compound 0.1 µM) was 27%. The residual activity (ULK1 (human); compound 1.0 µM) was 67%, the residual activity (EIF2AK3 (human); compound 0.1 µM) was 103% and the residual activity (EIF2AK3 (human); compound 1.0 µM) was 93%. The residual activity (NUAK1 (human); compound 0.1 µM) was 79%, the residual activity (NUAK1 (human); compound 1.0 µM) was 49% and the residual activity (DDR2 (human); compound 0.1 µM) was 106%. The residual activity (DDR2 (human); compound 1.0 µM) was 97%, the residual activity (TTBK1 (human); compound 0.1 µM) was 92% and the residual activity (TTBK1 (human); compound 1.0 µM) was 83%. The residual activity (TESK1 (human); compound 0.1 µM) was 89%, the residual activity (TESK1 (human); compound 1.0 µM) was 93% and the residual activity (SIK2 (human); compound 0.1 µM) was 100%. The residual activity (SIK2 (human); compound 1.0 µM) was 105%, the residual activity (CDK9 CCNT1 (human); compound 0.1 µM) was 85% and the residual activity (CDK9 CCNT1 (human); compound 1.0 µM) was 80%. It also gave a residual activity (TEK (human); compound 0.1 µM) of 105%, a residual activity (TEK (human); compound 1.0 µM) of 98% and a residual activity (ZAP70 (human); compound 0.1 µM) of 105%. For the same compound, the residual activity ([1]; compound 0.1 µM) was 96%, the residual activity ([1]; compound 1.0 µM) was 91% and the residual activity (ABL1 (human); compound 0.1 µM) was 97%. For the same compound, the residual activity (ABL1 (human); compound 1.0 µM) was 86%, the residual activity (TSSK1B (human); compound 0.1 µM) was 91% and the residual activity (TSSK1B (human); compound 1.0 µM) was 86%. The residual activity (PTK6 (human); compound 1.0 µM) was 75%, the residual activity (TLK1 (human); compound 0.1 µM) was 99% and the residual activity (TLK1 (human); compound 1.0 µM) was 100%. For the same compound, the residual activity (STK16 (human); compound 0.1 µM) was 110%, the residual activity (STK16 (human); compound 1.0 µM) was 101% and the residual activity (MAP2K6 (human); compound 0.1 µM) was 100%. For the same compound, the residual activity (MAP2K6 (human); compound 1.0 µM) was 95%.
In the case of `CNc1nc(-c2ccc3c(N)n[nH]c3c2)cc(N2C[C@@H](C(=O)NC3CCCCC3)CC[C@H]2C)n1`, the residual activity (STK33 (human); compound 1.0 µM) is reported as 89%, the residual activity (STK33 (human); compound 10.0 µM) is reported as 43% and the residual activity (PRKCG (human); compound 10.0 µM) is reported as 87%. The residual activity (STK24 (human); compound 1.0 µM) was 110%, the residual activity (STK24 (human); compound 10.0 µM) was 110% and the residual activity (CSNK1G2 (human); compound 1.0 µM) was 101%. For the same compound, the residual activity (CSNK1G2 (human); compound 10.0 µM) was 97%, the residual activity (IRAK1 (human); compound 1.0 µM) was 105% and the residual activity (IRAK1 (human); compound 10.0 µM) was 106%. For the same compound, the residual activity (SIK3 (human); compound 1.0 µM) was 76%, the residual activity (SIK3 (human); compound 10.0 µM) was 58% and the residual activity (EIF2AK3 (human); compound 1.0 µM) was 100%. It also gave a residual activity (EIF2AK3 (human); compound 10.0 µM) of 100%, a residual activity (NUAK1 (human); compound 0.01 µM) of 120% and a residual activity (NUAK1 (human); compound 0.1 µM) of 105%. The residual activity (NUAK1 (human); compound 1.0 µM) was 47%, the residual activity (NUAK1 (human); compound 10.0 µM) was 9% and the residual activity (WNK1 (human); compound 1.0 µM) was 109%. The residual activity (WNK1 (human); compound 10.0 µM) was 104%, the residual activity (DDR2 (human); compound 1.0 µM) was 107% and the residual activity (TTBK1 (human); compound 1.0 µM) was 112%. The residual activity (TTBK1 (human); compound 10.0 µM) was 99%, the residual activity (TESK1 (human); compound 1.0 µM) was 91% and the residual activity (TESK1 (human); compound 10.0 µM) was 101%. The residual activity (SIK2 (human); compound 1.0 µM) was 106%, the residual activity (SIK2 (human); compound 10.0 µM) was 78% and the residual activity (CDK9 CCNT1 (human); compound 1.0 µM) was 92%. For the same compound, the residual activity (CDK9 CCNT1 (human); compound 10.0 µM) was 100%, the residual activity (TEK (human); compound 1.0 µM) was 105% and the residual activity (TEK (human); compound 10.0 µM) was 76%. The residual activity (ZAP70 (human); compound 1.0 µM) was 98%, the residual activity ([1]; compound 1.0 µM) was 112% and the residual activity ([1]; compound 10.0 µM) was 103%. It also gave a residual activity (ABL1 (human); compound 1.0 µM) of 116%, a residual activity (ABL1 (human); compound 10.0 µM) of 100% and a residual activity (TSSK1B (human); compound 1.0 µM) of 88%. It also gave a residual activity (TSSK1B (human); compound 10.0 µM) of 64%, a residual activity (PTK6 (human); compound 1.0 µM) of 127% and a residual activity (PTK6 (human); compound 10.0 µM) of 116%. For the same compound, the residual activity (TLK1 (human); compound 1.0 µM) was 101%, the residual activity (TLK1 (human); compound 10.0 µM) was 115% and the residual activity (STK16 (human); compound 1.0 µM) was 105%. It also gave a residual activity (STK16 (human); compound 10.0 µM) of 104%, a residual activity (MAP2K6 (human); compound 1.0 µM) of 87% and a residual activity (MAP2K6 (human); compound 10.0 µM) of 94%.
